Laboratory results published in patent US4873088A, “Liposome drug delivery method and composition” (priority 1987, dated 1989).

Key:
[1] = both compounds in the free form; cited from earlier work
L1210 leukemia cells = assay: Acute therapeutic effect (mean survival time) in mice injected i.p. with 10^6 L1210 leukemia cells, i.v. ADM; assay type: in vivo, DBA 2J mice; details: one day after L1210
Description: The day of death of the animals was recorded, and the mean survival time of each group was calculated. Each group contained from between 6 and 10 mice.

[2] = Acute and chronic toxicity (LD50) after single i.v. dose in healthy mice; details: mouse, in vivo, iv
Description: The toxicity of the three ADM preparations in Table 1 above was tested against healthy DMA 2J mice.
The data are expressed in terms of LD50, i.e. the dosage (in mg drug per kilogram of animal body weight) which produces death in half the animals receiving the drug. […] The number of mice available for determination of chronic toxicity (survival of acute toxicity) varied from between about 2 and 10 mice per group.

YAC-1 lymphoma cells [3] = assay: PEC NK activity with and without anti-Asialo GM1 antibody + complement; assay type: cell-based, mice; details: PEC 7 days after treatment; for NK activity, specific 51Cr release, Untreated: no antibody
Description: In order to verify that the effector cells in the PEC population that were active against YAC-1 cells had.NK properties, PECs were treated with anti-Asialo GMI antiserum and complement in vitro prior to the 4 hr toxicity assay for PECs.
Anti-Asialo GM1 antibody was added directly to PEC in the microwells at a final dilution of 1:20. After 30 min on ice the cultured effector cells were spun down, supernatant removed and the cells resuspended. Low toxicity rabbit complement was added (final dilution 1:20) and the cultures incubated for 45 min. After 3 washings, the PECs (5×10^5) were cultures with 10^4 radio-labeled YAC-1 cells, and radioactivity released was assayed after 4 hours.

IL-1 = IL-1 like activity of adherent PEC culture supernatants (thymocyte comitogenic assay); assay type: cell-based, C3H/Hej mice
Description: (§1) The cells were cultured for 18 hours with the concentrations of LPS indicated below in Table 4.
A standard thymocyte comitogenic assay for IL-1 was used to test 18 h adherent PEC culture supernatants for IL1 like activity. Thymopytes (5×10^5) from C3H/Hej mice were added in 0.1 ml/well to flat bottom, 96 well plates. An equal volume of adherent PEC culture supernatant was added for a final volume of 0.2 ml. To facilitate a proliferative response, the media was supplemented with PHA ([…]) and 2-mercaptoethanol ([…]). Cultures were incubated for 72 h. Four hours before harvesting, the cultures were pulsed with [^3 H]dThd (New England Nuclear, 2 Ci/mole; […]).
Cells were harvested on glass fiber filters with an Otto Hiller cell harvester. The radioactivity was measured by scintillation counting using a Beckmann counter (Model LS 7000). Thymidine uptake by the thymocytes was expressed as mean cpm±S.D.

IL-2 = IL-2 activity of adherent PEC culture supernatants (IL-2 dependent CTCL-1 line); assay type: cell-based
Description: The purpose is to determine if the enhanced macrophage tumoricidal activity and NK activity detailed above correlates with increases in either IL-1 or IL-2.
as §1
The procedure used for assaying IL-2 has been described (Ehrke, 1986). Briefly, using a long term, IL-2 dependent cytolytic T cell line (CTCL-1), 10^4 cells in 0.1 ml were added to 0.1 ml volumes of conditioned media from adherent PEC cultures. The cells were incubated for 24 h and pulsed with [^3 H]Thd ([…]) 4 h before harvest. Results were expressed as the arithmetic mean of cpm dThd uptake ±S.D. A semipurified, rat IL-2 preparation was used as a positive control.

[4] = PEC ADM content by fluorescence after i.p. administration; assay type: in vivo, mice
Description: ADM was extracted from 10^6 PEC/sample by sonication in 36.5% HCl: absolute ethanol (1:11) in an ice bath for 5 min. This sonicated lysate was centrifuged (12,150×g) for 20 min at 4-6 C. The supernatant was measured for fluorescence at 468 nm excitation and 585 nm emission using a Perkin-Elmer (Model 650-10S) spectrofluorometer.

YAC-1 lymphoma cells [5] = assay: Splenic NK activity against YAC-1 cells (51Cr release); assay type: cell-based, mice
Description: Fresh spleen cells were added to ^51 Cr labeled YAC-1 cells at different effector to target cell ratios.

## Cc1c(C)c2c(c(C)c1O)CCC(C)(CCCC(C)CCCC(C)CCCC(C)C)O2 (stereo not drawn) [alpha-tocopherol (vitamin E), alpha-tocopherol]
[1]
  cardiotoxicity of ADM (in words): reduce the cardiotoxicity of ADM in animals

## COc1cccc2c1C(=O)c1c(O)c3c(c(O)c1C2=O)C[C@@](O)(C(=O)CO)C[C@@H]3O[C@H]1C[C@H](N)[C@H](O)[C@H](C)O1 [free ADM, doxorubicin]
L1210 leukemia cells; 10 mg/kg ADM
  Mean Survival Time ± S.D.: 18.4 ± 1.8 days
L1210 leukemia cells; 20 mg/kg ADM
  Mean Survival Time ± S.D.: 12.2 ± 1.6 days
[2]; death between 50 and 120 days, read-out: Mean LD50 ± S.D., chronic
  LD50 at 2880 h: 12 ± 5 mg/kg
[2]; death within 14 days, read-out: Mean LD50 ± S.D., acute
  LD50 at 336 h: 20 ± 5 mg/kg
YAC-1 lymphoma cells [3]; Exp. No. 1
  NK activity, specific 51Cr release, Asialo GM1 Antibody + Complement: 3.4 ± 0.9%
  NK activity, specific 51Cr release, Untreated: 16.9 ± 2.6%
YAC-1 lymphoma cells [3]; Exp. No. 2
  NK activity, specific 51Cr release, Asialo GM1 Antibody + Complement: 0.2 ± 0.8%
  NK activity, specific 51Cr release, Untreated: 18.9 ± 1.4%
IL-1; LPS 0 ng/ml
  IL-1 activity (thymidine uptake by thymocytes): 9142 ± 1179 cpm
IL-1; LPS 0.001 ng/ml
  IL-1 activity (thymidine uptake by thymocytes): 9693 ± 230 cpm
IL-1; LPS 0.1 ng/ml
  IL-1 activity (thymidine uptake by thymocytes): 11588 ± 953 cpm
IL-1; LPS 0.001 to 1,000 ng/ml
  dependence of IL-1-like activity on LPS (in words): no significant increase in this activity from ADM PEC was observed with LPS exposure
IL-2; LPS 0 ng/ml
  IL-2 activity (dThd uptake): 285 ± 86 cpm
IL-2; LPS 0.001-1000 ng/ml
  IL-2 activity (dThd uptake): 286 ± 74 cpm
IL-2; with or without LPS activation
  IL-2 activity (in words): about background
[4]; Day 4, i.p.
  ADM Equivalents in PEC: 4.2 ± 0.5 ng ADM/10^6 PECs
[4]; Day 7, i.p.
  ADM Equivalents in PEC: 1.4 ± 0.4 ng ADM/10^6 PECs
[4]; Day 11, i.p.
  ADM Equivalents in PEC: 0.2 ± 0.2 ng ADM/10^6 PECs
YAC-1 lymphoma cells [5]
  duration of suppression of splenic NK (in words): transient
YAC-1 lymphoma cells [5]; 7 or 11 days before sacrifice
  splenic NK suppression (in words): suppression was not observed
YAC-1 lymphoma cells [5]; 4 days following treatment
  splenic NK activity (in words): reduced
